The source of these data is PMC3677712 (Bioorganic & medicinal chemistry letters, 2013).

Like-named read-outs stand apart in the source and are kept apart here.

The target of data set [1] is T1, AMPK (AMPK-A1/B1/G1) (Homo sapiens, UniProt Q13131). The note with it: reference compounds previously run in these assays; cited from earlier work.
The nature of data set [2]: Intrinsic clearance in hepatic microsomes. In kind it is in vitro ADME. The note with it: mouse.
The nature of data set [3]: Intrinsic clearance in hepatic microsomes. To be noted: rat. It is filed as in vitro ADME.
Data set [4] is described as follows: Intrinsic clearance in hepatic microsomes. In kind it is in vitro ADME. The note with it: human.
The target in data set [5] is T1, AMPK (AMPK-A1/B1/G1). Nature of the data set: In vitro kinase assay. In kind it is biochemical. To be noted: 10-dose, 3-fold dilution from 100 μM, 10 μM ATP.
The subject of another data set is ALK2 (Q207D). To be noted: mouse model expressing a constitutively active form of ALK2 (Q207D); cited from earlier work.
Where [6] appears, read: predicted from microsomal intrinsic clearance.

T1 sequence (Q13131 whole entry): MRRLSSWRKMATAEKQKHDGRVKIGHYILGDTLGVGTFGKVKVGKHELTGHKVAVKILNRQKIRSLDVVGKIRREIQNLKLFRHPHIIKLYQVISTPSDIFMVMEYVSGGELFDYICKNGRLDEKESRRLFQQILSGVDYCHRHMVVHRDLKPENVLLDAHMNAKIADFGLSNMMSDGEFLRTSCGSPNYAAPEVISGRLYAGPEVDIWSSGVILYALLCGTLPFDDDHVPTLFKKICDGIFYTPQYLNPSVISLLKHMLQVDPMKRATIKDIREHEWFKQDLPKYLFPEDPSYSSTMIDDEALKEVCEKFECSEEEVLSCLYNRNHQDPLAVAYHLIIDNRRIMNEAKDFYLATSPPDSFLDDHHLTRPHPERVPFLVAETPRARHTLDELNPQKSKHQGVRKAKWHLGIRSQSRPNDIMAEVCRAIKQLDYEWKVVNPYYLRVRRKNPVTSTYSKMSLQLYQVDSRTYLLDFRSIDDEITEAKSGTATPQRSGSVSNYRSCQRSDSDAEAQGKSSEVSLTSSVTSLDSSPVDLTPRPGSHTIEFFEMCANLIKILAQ
T1 sequence (Q9Y478 whole entry partner): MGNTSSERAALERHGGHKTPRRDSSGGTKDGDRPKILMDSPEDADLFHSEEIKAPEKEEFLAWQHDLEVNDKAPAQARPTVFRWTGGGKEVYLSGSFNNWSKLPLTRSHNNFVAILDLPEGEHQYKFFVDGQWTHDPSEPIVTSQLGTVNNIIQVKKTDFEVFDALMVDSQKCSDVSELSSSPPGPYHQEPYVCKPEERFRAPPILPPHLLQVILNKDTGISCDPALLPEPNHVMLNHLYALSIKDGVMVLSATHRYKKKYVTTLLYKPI
T1 sequence (P54619 whole entry partner): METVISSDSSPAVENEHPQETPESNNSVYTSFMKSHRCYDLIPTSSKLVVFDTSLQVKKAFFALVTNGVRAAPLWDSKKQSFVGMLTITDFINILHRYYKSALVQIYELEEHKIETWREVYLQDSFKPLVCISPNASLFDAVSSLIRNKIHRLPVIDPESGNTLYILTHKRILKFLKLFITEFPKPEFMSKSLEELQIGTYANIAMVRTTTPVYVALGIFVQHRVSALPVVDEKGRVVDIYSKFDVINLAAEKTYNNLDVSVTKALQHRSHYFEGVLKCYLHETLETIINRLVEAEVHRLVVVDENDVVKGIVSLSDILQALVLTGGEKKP

For the molecule `CC(C)Oc1ccc(-c2cnc3c(-c4ccnc5ccccc45)cnn3c2)cc1` [DMH1, 3, DMH1], the “IC50 AMPK” value on AMPK (AMPK-A1/B1/G1) [1] is “Inactive”.

In the case of `COc1ccc(-c2cnc3c(-c4cccc5ncccc45)cnn3c2)cc1` [7g], the CLint scaled in data set [2] (liver microsomes) stood at 37 L/h/kg; in data set [3] (liver microsomes), 8.88 L/h/kg; in data set [4] (liver microsomes), 31 L/h/kg. In addition, the figures for the CLHEP in data set [2] (setting [6]), in data set [3] (setting [6]) and in data set [4] (setting [6]) were 4.71 L/h/kg, 2.85 L/h/kg and 1.21 L/h/kg, respectively. Besides, the “IC50 AMPK” value on AMPK (AMPK-A1/B1/G1) [5] is listed as “Inactive”.

Consider `c1ccc2c(-c3cnn4cc(-c5ccc(N6CCNCC6)cc5)cnc34)ccnc2c1` [LDN-193189, 2, LDN-193189], for which the “effect on ectopic ossification (in words)” value in the data set on ALK2 (Q207D) was “could blunt ectopic ossification”.

As a reminder, the CLint scaled is the rate of metabolic loss divided by the concentration. A high value points to faster metabolism.
